According to PMC5442763, “Selective Inhibition of ADAM17 Efficiently Mediates Glycoprotein Ibα Retention During Ex Vivo Generation of Human Induced Pluripotent Stem Cell‐Derived Platelets” (Stem Cells Translational Medicine, 2016):

Assays:
[1] = system: human iPSC-derived MKs and platelets; experiment: Generation of MKs and platelets from human iPSC-derived HPCs at 37°C, flow cytometry; format: cell-based
Description: Directed differentiation to MKs and platelets from iPSCs and ESCs was performed as described previously. Briefly, 3 × 10^4 HPCs derived from iPS‐sacs on C3H10T1/2 feeder cells in the presence of 20 ng/ml vascular endothelial growth factor were transferred on day 14 of culture onto C3H10T1/2 feeder cells in differentiation medium supplemented with 50 ng/ml stem cell factor, 100 ng/ml thrombopoietin, 25 U/ml heparin sodium, and test compounds at 24°C or 37°C. The medium was refreshed every 3 days, and nonadherent cells were collected and analyzed on days 22–24.
(§1) Flow cytometric analysis was performed as previously described. Briefly, iPSC‐ and ESC‐derived MKs on days 22–24 and platelets in their supernatants were stained with combinations of antibodies for 30 minutes on ice (for MKs) or at room temperature (for platelets). Samples of MKs/platelets were then washed, diluted with staining medium (phosphate‐buffered saline containing 3% fetal bovine serum), and analyzed using flow cytometry (FACSAria; BD). Trucount tubes (BD) were used to quantify the MKs and platelets.

[2] = biological target: T1, human MMP17 (Homo sapiens, UniProt Q9ULZ9); experiment: MMP and ADAM activity assay (fluorescence-based): MMP17; format: biochemical; details: cell-free fluorescence assay
T1 construct: purchased R&D Systems
T1 sequence (Q9ULZ9 126-565 limits assumed): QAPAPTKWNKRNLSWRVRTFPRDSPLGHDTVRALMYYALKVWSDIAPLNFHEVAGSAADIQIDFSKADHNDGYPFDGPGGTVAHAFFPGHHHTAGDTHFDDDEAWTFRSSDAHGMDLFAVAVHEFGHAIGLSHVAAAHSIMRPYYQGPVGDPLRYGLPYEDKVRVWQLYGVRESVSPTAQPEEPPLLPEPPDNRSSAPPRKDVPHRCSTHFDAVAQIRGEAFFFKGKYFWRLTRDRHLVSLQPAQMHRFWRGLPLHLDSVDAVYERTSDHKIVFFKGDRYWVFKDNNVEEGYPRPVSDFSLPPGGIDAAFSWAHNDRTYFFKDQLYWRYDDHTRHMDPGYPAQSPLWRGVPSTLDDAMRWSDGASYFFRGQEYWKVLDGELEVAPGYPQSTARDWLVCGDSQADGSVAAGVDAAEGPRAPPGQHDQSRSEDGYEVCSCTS
Description: KP‐457 and GM‐6001 were tested for their ability to inhibit MMP‐ and ADAM‐catalyzed cleavage of substrates in a fluorescence‐based assay. Human ADAM17, ADAM10, and MMP17 were from R&D Systems (Minneapolis, MN, http://www.rndsystems.com), and human MMP1, MMP2, MMP3, MMP8, MMP9, MMP13, and MMP14 were from EMD Millipore. MMP1, MMP2, MMP8, MMP9, MMP13, and MMP17 were activated using p‐aminophenylmercuric acetate (Sigma‐Aldrich) before testing. Fluorogenic substrates for measuring activity of ADAM10 and ADAM17 [Nma‐[…](Dnp)r‐NH2, based on the cleavage site of TNF‐α]; MMP1, MMP9, MMP13, and MMP14 [Dnp‐P‐Cha‐GC(Me)HAK(N‐Me‐Abz)‐NH2]; MMP3 [MOCAc‐RPKPVE‐Nva‐WRK(Dnp)‐NH2]; and MMP2, MMP8, and MMP17 [MOCAc‐PLGL‐A2pr(Dnp)‐AR‐NH2] were all provided by Peptide Institute (Osaka, Japan, https://www.peptide.co.jp/en) and used as substrates. In addition, inhibitory activities were measured using LC/MS/MS with a GPIbα‐based substrate peptide ([…]), a C terminal‐based standard peptide ([…]), and an internal standard peptide ([…]). These peptides were synthetized by Scrum (Tokyo, Japan, http://www.scrum‐net.co.jp/english/top_en.htm).

[3] = system: imMKCL platelets; experiment: GPIbα retention in imMKCL-derived platelets; format: cell-based, human
Description: imMKCL expansion and subsequent platelet production were performed as previously reported. Briefly, imMKCLs were cultured in the presence of doxycycline for self‐replication by the expression of three doxycycline‐regulated transgenes: c‐MYC, BMI1, and BCL‐XL. imMKCLs were subsequently cultured for 5 days in the absence of doxycycline to produce platelets by turning the transgenes off, with or without 15 µmol/l KP‐457.
as §1
Fig. S4. The inhibitory effect of KP-457 on GPIbα shedding in platelets derived from human ESCs and immortalized megakaryocyte progenitor cell lines (imMKCLs).
Percentages of GPIbα-expressing CD41a+ platelets produced from human ESCs (A) and immortalized megakaryocyte progenitor cell lines (imMKCLs) (B), in the absence or presence of KP-457 (15 µmol/L). * P < 0.05 compared to the vehicle group by student’s t test, N≧3. […]

[4] = Good laboratory practice genotoxicity studies; details: data not shown
[5] = system: iPSC platelets, vWF/GPIbα-dependent aggregation; experiment: Flow cytometry-based platelet aggregation assay (ristocetin); format: cell-based, human; details: 15 µmol/l KP-457 during generation; 2 mg/ml ristocetin; vs. generated in its absence
Description: Flow cytometry platelet aggregation assays were performed as recently described. Aliquots of iPSC platelets, imMKCL platelets, or fresh washed human platelets were stained with anti‐CD9‐APC or anti‐CD9‐V450, and CD41a^+ platelets were counted using flow cytometry. Next, aliquots of platelets stained using anti‐CD9‐APC were mixed with platelets stained using anti‐CD9‐V450 at a 1:1 ratio (1–4 ×10^5 cells/ml each) and suspended in Tyrode‐HEPES solution containing […] PPACK (a thrombin inhibitor), 10% filtered human plasma, and 3 mmol/l CaCl2. The mixed platelets were stimulated with 2 mg/ml ristocetin or 100 µmol/l TRAP6 and 50 µmol/l ADP for 10 minutes at 37°C while swirling, fixed, and analyzed using flow cytometry. To quantify platelet aggregation, an index of double‐colored events (%) was calculated using the following formula described elsewhere: […]

[6] = KP-457 15 μmol/l, GM-6001 50 μmol/l, p38 MAP kinase inhibitor 10 μmol/l

## CC#CCOc1ccc(S(=O)(=O)CC(c2ccc(CNS(C)(=O)=O)cc2)N(O)C=O)cc1 (stereo not shown) [KP-457, N‐(2‐{[4‐(but‐2‐yn‐1‐yloxy)phenyl]sulfonyl}‐1‐[4‐(methylsulfonamidomethyl)phenyl]ethyl)‐N‐hydroxyformamide]
[1]; [6]
  number of CD41a+ total iPSC platelets: no significant effect
  retention of GPIbα expression on CD41a+ iPSC-derived platelets: able to retain
[1]; KP-457 15 μmol/l, GM-6001 50 μmol/l, p38 MAP kinase inhibitor 10 μmol/l, MK differentiation and platelet production phases
  number of CD41a+ iPSC-derived MKs: no significant effect
[1]; KP-457 15 μmol/l, representative FACS plot, vehicle 48.3%
  GPIbα+ population in human iPSC-derived CD41a+ platelets: 80.7%
[1]; days 21–23 or 24, KP-457 15, BIRB796 10, U0126 10, BMS345541 10, Z-VAD 10, Ro31-8220 3 μmol/l
  GPIbα retention by iPSC-derived platelets, inhibitor only during platelet production phase: more effectively sustained
[2]
  IC50: 7.1 µM
[3]; 3 days, 37°C, in the presence of KP-457, data not shown
  GPIbα expression on platelets under static culture: highly maintained
[3]; KP-457 15 µmol/L
  GPIbα retention in platelets derived from imMKCLs: consistently observed
[4]
  genotoxicity: neither genotoxicity nor systemic toxicity
[5]
  ristocetin-induced vWF/GPIbα-dependent aggregation of iPSC platelets generated with inhibitor: greater aggregation capability
